Laboratory results: patent publication US20080008760A1, “Functionalized carbon nanotubes, a process for preparing the same and their use in medicinal chemistry” (priority 2003, published 2008)

Assays:
[1] = test system: Murine 3T3 cells (ATCC CCL-92); test: Cytofluorometry: penetration of FITC functionalized nanotube into cells; assay type: cell-based; settings: 1 μM, 5 μM and 10 μM, 1 hour
[2] = test system: Murine 3T3 cells (ATCC CCL-92); test: Fluorescent and confocal microscopy: penetration of FITC functionalized nanotubes into cells; assay type: cell-based; settings: 1 μM, 5 μM and 10 μM; FIG. 3: 40 minutes incubation

## O=C(O)c1cc(NC(=S)NCCOCCOCCN2CCCC2)ccc1-c1c2ccc(=O)cc-2oc2cc(O)ccc12 [formula (L)]
[1]
  penetration into 3T3 cells (cytofluorometry): readily penetrate into 3T3 cells
[2]
  penetration into 3T3 cells (fluorescence microscopy, FIG. 3): have penetrated into 3T3 cells
